SMILES strings stand for the structures.

This data set can be described thus: GHS categories as the set defines them, by LD50: 1 up to 5, 2 up to 50, 3 up to 300, 4 up to 2000, 5 above 2000 mg/kg. To be noted: rat; in vivo; po.

`CCOP(Oc1c(C)cc(C(C)(C)C)cc1C(C)(C)C)Oc1c(C)cc(C(C)(C)C)cc1C(C)(C)C` displayed a GHS category of 5.
On to `O=C1CCCCCN1C(=O)NCCCCCCNC(=O)N1CCCCCC1=O`, for which the GHS category came to 5.
In turn, `CC(=O)OC1CC[C@H]2[C@@H]3CC[C@H]4CC(=O)C=C(C)[C@]4(C)[C@H]3CC[C@]12C` (stereo partly drawn) yielded a GHS category of 5.
As for `CCC[Si](OCC)(OCC)OCC`, the GHS category came out at 5.
`COc1cc(C(=O)OCc2cccc(COC(=O)c3cc(OC)c(OC)c(OC)c3)n2)cc(OC)c1OC`: the GHS category worked out at 5.
Compound `O=C(O)C(=O)[C@@H](O)[C@H](O)[C@H](O)CO` returned a GHS category of 5.
On to `CC(C)(C)c1ccc2oc(-c3ccc(C=Cc4ccc(-c5ccccc5)cc4)cc3)nc2c1`, for which the GHS category was determined as 5.
On to `COc1ccc(C(=O)Nc2ccccc2)cc1N`, for which the GHS category amounted to 5.
The compound `CCC(C)=NO[Si](ON=C(C)CC)(ON=C(C)CC)c1ccccc1` had a GHS category of 5.
For `COc1cc(OC)nc(N=C(O)NS(=O)(=O)N(C)S(C)(=O)=O)n1`, the GHS category was determined as 5.
`CC(C)=CCCC(C)(C)O` gave a GHS category of 5.
`CO/C=C(/C(=O)OC)c1ccccc1COc1cccc(C(F)(F)F)n1` had a GHS category of 5.
Compound `O=C1CC(N2C(=O)c3ccccc3C2=O)CC(=O)N1` yielded a GHS category of 5.
Regarding `CCOC(=O)c1ccnc(C(=O)OCC)c1`, the GHS category is listed as 5.
`CSC(C)(C)SC` gave a GHS category of 5.
For the compound `O=C1NCCCN1CN1CCOCC1`, the GHS category worked out at 5.
As to `N[C@@H](CSCC(=O)O)C(=O)O`, the GHS category is recorded as 5.
The value for `COC(=O)CC(N)=S` was 4; that for `COc1cc(S(=O)(=O)O)c(C)cc1/N=N/c1c(O)ccc2cc(S(=O)(=O)O)ccc12` was 5.
In turn, `CC(C)C[Si](Cl)(Cl)Cl` yielded a GHS category of 3.
`Nc1c[n+](N2CCOCC2)no1` had a GHS category of 4.
For `CCOC(=O)C1=C(C)NC(C[P+](c2ccccc2)(c2ccccc2)c2ccccc2)=C(C(=O)OCC)C1c1cccc([N+](=O)[O-])c1` (stereo not drawn) the value was 4; for `O=C1OC(CN2CCOCC2)CC12CC(CN1CCOCC1)OC2=O` (stereo not drawn), 5; for `C[C@@H](O)[C@H]1C(=O)N2C(C(=O)O)=C(SCCNC=N)C[C@H]12`, 5.
`CC(C)(C)C(O)/C=C/c1ccc2c(c1)OCO2` (stereo not drawn) had a GHS category of 5.
As to `CC(C)(C)C(=O)OCC(=O)c1ccccc1`, the GHS category stood at 5.
For `CC(C)C1=CC23CCC4C(C)(C(=O)N5CCNCC5)CCCC4(C)C2CC1C1C(=O)OC(=O)C13` (stereo not drawn), the GHS category stood at 5.
For `CCC(C)(NC(=O)c1cc(Cl)c(C)c(Cl)c1)C(=O)CCl` (stereo not drawn), the GHS category was 5.
Compound `CNCC1CCC(N)C(OC2C(N)CC(N)C(OC3OCC(C)(O)C(NC)C3O)C2O)O1` (stereo not drawn) had a GHS category of 5.
Compound `COc1c(O)cc2c(c1O)C1OC(CO)C(O)C(O)C1OC2=O` (stereo not drawn) showed a GHS category of 5.
In turn, `N#CCC(=O)c1ccccc1Cl` displayed a GHS category of 5.
As to `CCCCCCCCCCCCCCCCCC(=O)OC[C@@H](OC(=O)CCCCCCCCCCCCCCCCC)[C@H]1OC[C@H](O)[C@H]1OC(=O)CCCCCCCCCCCCCCCCC`, the GHS category is on record as 5.
The value for `CCC(=O)N[C@H]1CCc2nc(N)sc2C1` was 5; that for `CC(C)CC(C)c1ccccc1N` (stereo not drawn) was 5; that for `CC(C)(C)CC(C)(C)c1ccc(O)c(-n2nc3ccccc3n2)c1` was 5.
For `CCCCCCCCCC(=O)Oc1ccc(C(=O)O)cc1` the value was 5.
Regarding `O=S(=O)(O)c1cc(-n2ncc(-c3ccccc3)n2)ccc1C=Cc1ccc(-n2ncc(-c3ccccc3)n2)cc1S(=O)(=O)O`, the GHS category came out at 5.
The value for `CCCCC(CC)COC(=O)c1ccccc1O` (stereo not drawn) was 5.
In the case of `CC(=O)Nc1cc2cccnc2c(N2CCN(CCO)CC2)n1`, the GHS category is recorded as 5.
`COc1ccc(C2COc3ccccc3O2)cc1O` (stereo not drawn): the GHS category is 5.
`Cc1nsc(NC(=O)c2ccccc2)c1C(=O)Nc1ccc(Cl)cc1` came in with a GHS category of 5.
The value for `NC(=O)Oc1ccccc1C(=O)Oc1ccc(Cl)cc1` was 5; that for `CCCCCCCCCCCCCCC` was 5.
`CCCCOC(=O)C1(O)c2ccccc2-c2ccccc21` displayed a GHS category of 5.
`O=[N+]([O-])c1cc2c(Nc3ccc(F)c(Cl)c3)ncnc2cc1S(=O)(=O)c1ccccc1` registered a GHS category of 5.
`O=C(O)CC[C@@H](C(=O)O)N(CC(=O)O)CC(=O)O`: the GHS category worked out at 5.
For `COc1ccc2[nH]cc(CCNC(C)=O)c2c1` the value was 5; for `CN1CCN(c2c(F)cc3c(=O)c(C(=O)O)cn(CCF)c3c2F)CC1`, 5; for `NC(=O)[C@@H]1CCCN1C(=O)[C@H](Cc1cnc[nH]1)NC(=O)[C@@H]1CCC(=O)N1`, 5.
Consider `NC(=O)Oc1ccccc1C(=O)Oc1cc(Cl)ccc1Cl`, for which the GHS category is on record as 5.
Regarding `COC1=CC(=O)C[C@@H](C)[C@]12Oc1c(Cl)c(OC)cc(OC)c1C2=O`, the GHS category is on record as 5.
Turning to `O=C(O)Cc1ccc(Cl)cc1Cl`, the GHS category came to 5.
The value for `O=C1CC(c2ccccc2)c2cc(Br)ccc2O1` (stereo not drawn) was 5.
`CC(C)CCCCCCCCCCOCCCN`: the GHS category worked out at 4.
`C/C(=C(\CCOC(=O)C(C)C)SS/C(CCOC(=O)C(C)C)=C(/C)N(C=O)Cc1cnc(C)nc1N)N(C=O)Cc1cnc(C)nc1N` gave a GHS category of 5.
`COc1ccccc1-c1nc(C)c(C(N)=O)s1` gave a GHS category of 5.
Take `CC(O)CN(CC(C)O)C(=O)CCCCC(=O)N(CC(C)O)CC(C)O` (stereo not drawn): the GHS category amounted to 5.
The compound `CCC(=O)OCCCc1ccccc1` registered a GHS category of 5.
Consider `Cc1c(CC(=O)O)c2c(n1CC(C)C)CC(C)(C)CC2=O`, for which the GHS category is 5.
`NC(=O)c1ccc(N)cc1` gave a GHS category of 5.
As for `CC(=O)Nc1ccc(NC(=O)c2cc3ccccc3cc2O)cc1`, the GHS category stood at 5.
Consider `FC(F)(F)C(F)(F)C(F)(F)C(F)(F)C(F)(F)C(F)(F)F`, for which the GHS category amounted to 5.
With `CC=CCCC1CCCC(=O)O1` (stereo not drawn), the GHS category is reported as 5.
Consider `CC1(C)C=C(n2ccccc2=O)c2cc(C#N)ccc2C1=O`, for which the GHS category is given as 3.
The compound `CNC[C@@H]1CC[C@@H](N)[C@@H](O[C@H]2[C@H](O)[C@@H](O[C@H]3OC[C@](C)(O)[C@H](NC)[C@H]3O)[C@H](N)C[C@@H]2N)O1` displayed a GHS category of 5.
As to `CCCCCCCCCCCCCC[Si](C)(O[Si](C)(C)C)O[Si](C)(C)C`, the GHS category stood at 5.
The compound `COP(=S)(OC)Oc1ccc(Cl)cc1C#N` registered a GHS category of 4.
The value for `c1cnn(-c2cc(-n3cccn3)ncn2)c1` was 5; that for `CCCCCCCCCC(C)=O` was 5; that for `CN1CC(c2ccon2)CC2c3cccc4[nH]cc(c34)CC21` (stereo not drawn) was 4.
The value for `CCCCCCCCCCCCCCCCOC(=O)OOC(=O)OCCCCCCCCCCCCCCCC` was 5; that for `Cc1ccc(C(C)C)cc1OC(=O)c1ccccc1Nc1cccc(C)c1C` was 5.
For `CNC(=O)C(=NNc1cccc(Cl)c1)C(C)=O` the value was 5.

The values above are taken from the CATMoS acute toxicity set (Mansouri et al. 2021).
